Test results from article PMC9774241, “Associating Biological Activity and Predicted Structure of Antimicrobial Peptides from Amphibians and Insects” (Antibiotics, 2022).
≈ marks a conversion by molar mass, not a printed value. Residues, ends and D or L forms follow the SMILES beside them. No end group written: not given here.

Experiments:
Format in all cases: cell-based
Conditions in all cases: broth microdilution in MHB, peptide 128 down to 0.5 µg/mL, 20–24 h at 37 °C, no visible growth; range of three independent experiments
[1] = test system: Escherichia coli ATCC 25922
Protocol: (§1) Bacteria were grown overnight at 37 °C in Mueller-Hinton Broth (MHB; Sigma-Aldrich, St. Louis. MO, USA) in a shaking incubator and aliquoted into cryovials with a 50% glycerol solution in a 1:1 ratio. No additives were added to the MHB during the growth of bacterial isolates. Glycerol stocks were stored at −80 °C.
(§2) The antimicrobial activity of the putative AMPs was determined by a broth microdilution assay as described by the Clinical and Laboratory Standards Institute, with the published adaptations for testing of cationic peptides. Escherichia coli 25922 and Staphylococcus aureus 29213 isolates were purchased from the American Type Culture Collection (ATCC; Manassas, VA, USA). A human clinical isolate of Salmonella enterica serovar Enteritidis was provided by the BC Centre for Disease Control. Bacteria from stocks stored at −80 °C were streaked onto nonselective Columbia blood agar with 5% sheep blood (Oxoid) and incubated overnight at 37 °C. Next, 2–4 colonies were streaked onto a new agar plate to ensure uniform health of colonies used in the broth microdilution assay. Isolated colonies were suspended in MHB and the optical density was measured with a spectrophotometer to create an initial inoculum concentration of approximately 1 × 10^8 cfu/mL. The inoculum was diluted 1:250 to a final concentration of 2–8 × 10^5 cfu/mL, which was confirmed by performing a Total Viability Count (TVC). The TVC consisted of plating a 1:1000 dilution of the final inoculum on nonselective media and was also used to confirm the health and purity of the inoculum in each trial.
(§3) Lyophilized 80 µg peptide aliquots synthesized by GenScript (Piscataway, NJ, USA) were resuspended to 1.28 mg/mL with UltraPure water (Thermo Fisher Scientific, Waltham, MA, USA) and serially diluted in polypropylene 96-well microtiter plates (Greiner Bio-One #650261, Kremsmünster, Austria) from 128 down to 0.5 µg/mL. Two columns per plate were reserved for growth and sterility controls. Inoculum was added to the wells containing the peptide and the growth control. Plates were incubated for 20–24 h at 37 °C. The minimum inhibitory concentration (MIC) was determined as the lowest peptide concentration where there was no visible bacterial growth.

[2] = test system: Salmonella enterica serovar Enteritidis (human clinical isolate)
Protocol: as §1, §2, §3

[3] = test system: Staphylococcus aureus ATCC 29213
Protocol: as §1, §2, §3

Molecule	MIC, E. coli ATCC 25922 [1] [µg/mL]	MIC, Salmonella Enteritidis [2] [µg/mL]	MIC, S. aureus ATCC 29213 [3] [µg/mL]
CC[C@H](C)[C@H](NC(=O)CNC(=O)[C@H](C)NC(=O)[C@@H](NC(=O)[C@H](CC(N)=O)NC(=O)[C@H](CCCCN)NC(=O)[C@H](C)NC(=O)[C@H](C)NC(=O)CNC(=O)[C@H](CCCCN)NC(=O)[C@@H](NC(=O)[C@@H](NC(=O)[C@H](CC(=O)O)NC(=O)[C@H](CC(C)C)NC(=O)[C@H](CC(C)C)NC(=O)[C@H](CC(C)C)NC(=O)CN)[C@@H](C)O)C(C)C)C(C)C)C(=O)N[C@@H](CC(C)C)C(=O)N[C@@H](CC(C)C)C(=O)N[C@@H](CC(N)=O)C(=O)N[C@@H](CCCCN)C(=O)N[C@@H](CC(C)C)C(=O)N[C@@H](CCCCN)C(=O)N[C@@H](CS)C(=O)N[C@@H](CCCCN)C(=O)N[C@H](C(=O)N[C@H](C(=O)NCC(=O)N[C@@H](CC(=O)O)C(=O)N[C@@H](CS)C(=O)O)[C@@H](C)O)C(C)C [PeNi10] (H-GLLLDTVKGAAKNVAGILLNKLKCKVTGDC-OH; N-terminus and C-terminus assumed)	8 (≈ 2.62 µM)	64 to 128	16 to 32
KLFLTLWKLKR [NaVi3]	8 to 16	64	128
TALKSLSILKKLAKLNM [PoSn2, rAMPage-discovered AMP, Polistes snelleni]	64 to 128	> 128	> 128
GWGLINIKIPPVLHKVSVPLVSKR [ApMe3]	> 128	> 128	> 128
CC[C@H](C)[C@H](NC(=O)[C@H](CCCCN)NC(=O)[C@H](CS)NC(=O)[C@H](Cc1ccccc1)NC(=O)[C@H](CCCCN)NC(=O)[C@H](CCCNC(=N)N)NC(=O)[C@H](CO)NC(=O)[C@H](Cc1ccc(O)cc1)NC(=O)CNC(=O)[C@H](CS)NC(=O)[C@@H]1CCCN1C(=O)[C@H](C)NC(=O)[C@@H](NC(=O)[C@H](C)NC(=O)[C@H](Cc1ccccc1)NC(=O)[C@H](Cc1ccccc1)NC(=O)[C@H](Cc1ccccc1)NC(=O)[C@H](CCCNC(=N)N)NC(=O)[C@@H](N)CCCNC(=N)N)[C@@H](C)O)C(=O)N[C@H](C(=O)N[C@@H](CCCNC(=N)N)C(=O)N[C@@H](CCCNC(=N)N)C(=O)N[C@@H](CCCCN)C(=O)N[C@@H](CCCNC(=N)N)C(=O)O)[C@@H](C)O [CaCa4] (H-RRFFFATAPCGYSRKFCKITRRKR-OH)	16 to 32	32 to 64	> 128
CC[C@H](C)[C@H](NC(=O)[C@H](CCCCN)NC(=O)[C@H](CCCCN)NC(=O)CNC(=O)[C@H](C)NC(=O)CNC(=O)[C@H](CC(C)C)NC(=O)[C@H](CC(C)C)NC(=O)CNC(=O)[C@H](CO)NC(=O)[C@H](CC(C)C)NC(=O)[C@H](CC(C)C)NC(=O)CN)C(=O)N[C@H](C(=O)N[C@@H](CS)C(=O)NCC(=O)N[C@@H](CC(C)C)C(=O)N[C@@H](CO)C(=O)NCC(=O)N[C@@H](CCSC)C(=O)N[C@@H](CS)C(=O)O)C(C)C [OdMa3] (H-GLLSGLLGAGKKIVCGLSGMC-OH; N-terminus and C-terminus assumed)	8 to 16	64 (≈ 32.4 µM)	32 (≈ 16.2 µM)
CC[C@H](C)[C@H](NC(=O)CNC(=O)[C@H](CO)NC(=O)[C@@H](NC(=O)[C@H](CC(C)C)NC(=O)CN)[C@@H](C)CC)C(=O)N[C@@H](CC(C)C)C(=O)NCC(=O)N[C@@H](C)C(=O)NCC(=O)N[C@@H](CCCCN)C(=O)N[C@@H](CCCCN)C(=O)N[C@H](C(=O)N[C@@H](CC(C)C)C(=O)N[C@@H](CS)C(=O)NCC(=O)N[C@@H](CC(C)C)C(=O)N[C@@H](CO)C(=O)NCC(=O)N[C@@H](CC(C)C)C(=O)N[C@@H](CS)C(=O)O)C(C)C [OdMa10] (H-GLISGILGAGKKVLCGLSGLC-OH; N-terminus and C-terminus assumed)	16 to 32	> 128	64 to 128
CC(C)C[C@H](NC(=O)CN)C(=O)N[C@@H](CC(C)C)C(=O)NCC(=O)N[C@@H](CCCCN)C(=O)N[C@H](C(=O)N[C@@H](CC(C)C)C(=O)NCC(=O)N[C@H](C(=O)NCC(=O)N[C@@H](CCCCN)C(=O)N[C@@H](CCCCN)C(=O)N[C@H](C(=O)N[C@@H](CC(C)C)C(=O)N[C@@H](CS)C(=O)NCC(=O)N[C@H](C(=O)N[C@H](C(=O)NCC(=O)N[C@@H](CCCNC(=N)N)C(=O)N[C@@H](CCC(=O)O)C(=O)N[C@@H](CCCNC(=N)N)C(=O)N[C@@H](CS)C(=O)N[C@@H](CCC(N)=O)C(=O)O)[C@@H](C)O)C(C)C)C(C)C)C(C)C)C(C)C [PeNi5] (H-GLLGKVLGVGKKVLCGVTGRERCQ-OH; N-terminus and C-terminus assumed)	32 (≈ 12.9 µM)	64 (≈ 25.9 µM)	> 128
FIKTQVLKHLVAGVRVARGLDWKWR [CaCa2]	8	> 128	64 to 128
FLPSSPWNEGTYVLKKLKS [PeNi15]	> 128	> 128	> 128
CC[C@H](C)[C@H](NC(=O)CN)C(=O)N[C@@H](CC(C)C)C(=O)N[C@@H](CC(C)C)C(=O)N[C@@H](CC(N)=O)C(=O)N[C@H](C(=O)N[C@@H](CC(C)C)C(=O)N[C@@H](CCCCN)C(=O)NCC(=O)N[C@@H](C)C(=O)N[C@@H](C)C(=O)N[C@@H](CCCCN)C(=O)N[C@@H](CC(N)=O)C(=O)N[C@H](C(=O)N[C@@H](C)C(=O)NCC(=O)N[C@H](C(=O)N[C@@H](CC(C)C)C(=O)N[C@@H](CC(C)C)C(=O)N[C@@H](CC(=O)O)C(=O)N[C@@H](CCCCN)C(=O)N[C@@H](CC(C)C)C(=O)N[C@@H](CCCCN)C(=O)N[C@@H](CS)C(=O)N[C@@H](CCCCN)C(=O)N[C@H](C(=O)N[C@H](C(=O)NCC(=O)NCC(=O)N[C@@H](CS)C(=O)O)[C@@H](C)O)[C@@H](C)CC)C(C)C)C(C)C)[C@@H](C)O [PeNi8] (H-GILLNTLKGAAKNVAGVLLDKLKCKITGGC-OH; N-terminus and C-terminus assumed)	8 (≈ 2.66 µM)	64 (≈ 21.2 µM)	4 to 8
CC[C@H](C)[C@H](NC(=O)CNC(=O)[C@H](CCCNC(=N)N)NC(=O)[C@H](CCCCN)NC(=O)[C@H](CCCCN)NC(=O)[C@H](CCCNC(=N)N)NC(=O)[C@@H]1CCCN1C(=O)[C@@H](NC(=O)[C@H](CCSC)NC(=O)[C@H](CC(C)C)NC(=O)[C@@H](N)CCCCN)[C@@H](C)CC)C(=O)N[C@@H](Cc1ccccc1)C(=O)NCC(=O)NCC(=O)N[C@@H](CC(C)C)C(=O)N[C@@H](CC(C)C)C(=O)N[C@@H](CCCCN)C(=O)N[C@H](C(=O)NCC(=O)N[C@@H](CCCCN)C(=O)N[C@@H](CCCCN)C(=O)N[C@H](C(=O)N[C@@H](C)C(=O)N[C@@H](CS)C(=O)NCC(=O)N[C@@H](CC(C)C)C(=O)N[C@@H](CO)C(=O)NCC(=O)N[C@@H](CC(C)C)C(=O)N[C@@H](CS)C(=O)O)[C@@H](C)CC)C(C)C [OdTo4] (H-KLMIPRKKRGIFGGLLKVGKKIACGLSGLC-OH; N-terminus and C-terminus assumed)	8 to 16	16 (≈ 5.02 µM)	16 (≈ 5.02 µM)
GIFGGLLKEGKKIACGLSGLC [OdTo3, rAMPage-discovered AMP, Odorrana tormota]	32	> 128	> 128
